This assay has as its target CCR8 (Homo sapiens, UniProt P51685). The experiment in a line: Tango assay (Tango-CCR8-Gal4-CHO-K1 cells, CCL1-stimulated, ONE-Glo luminescence).
Where [1] appears, read: Tango Assay IC50, Inhibition of CCR8 Tango cell in vitro.

The term IC50 denotes the point on the concentration scale where inhibition reaches its midpoint.

Counter-ions that a name gives are not always drawn. Like-named read-outs stand apart in the source and are kept apart here.

CCR8, sequence (P51685 whole entry, the tested form may be a part): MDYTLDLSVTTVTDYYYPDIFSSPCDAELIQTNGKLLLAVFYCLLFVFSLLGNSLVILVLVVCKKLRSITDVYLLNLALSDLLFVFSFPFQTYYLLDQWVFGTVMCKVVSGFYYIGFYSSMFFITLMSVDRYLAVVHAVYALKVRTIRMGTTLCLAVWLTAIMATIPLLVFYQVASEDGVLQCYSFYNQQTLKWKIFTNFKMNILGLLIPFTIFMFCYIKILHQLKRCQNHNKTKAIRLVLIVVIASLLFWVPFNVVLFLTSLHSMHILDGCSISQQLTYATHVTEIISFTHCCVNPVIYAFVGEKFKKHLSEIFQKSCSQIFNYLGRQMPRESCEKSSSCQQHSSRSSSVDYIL

Take `Cc1ccccc1C(=O)Nc1ccc(S(=O)(=O)Nc2ccc3c(c2)C(=O)N(CCN(C)C)CCO3)c2ccccc12` [Compound 96, N-(4-(N-(4-(2-(dimethylamino)ethyl)-5-oxo-2,3,4,5-tetrahydrobenzo[f][1,4]oxazepin-7-yl)sulfamoyl)naphthalen-1-yl)-2-methylbenzamide]: the half-maximal inhibitory concentration (IC50) (read-out: Tango Assay IC50, Inhibition of CCR8 Tango cell in vitro) was over 10000 nM. `Cc1ccccc1C(=O)Nc1ccc(S(=O)(=O)Nc2ccc3c(c2)C(N(C)C(=O)CN(C)C)CCC3)c2ccccc12` (stereo not drawn) [Compound 97, N-(4-(N-(8-(2-(dimethylamino)-N-methylacetamido)-5,6,7,8-tetrahydronaphthalen-2-yl)sulfamoyl)naphthalen-1-yl)-2-methylbenzamide] returned an IC50 under setting [1] of over 10000 nM. The same measure, in the same setting: to `Cc1ccccc1C(=O)Nc1ccc(S(=O)(=O)Nc2ccc3c(c2)C(N(C)C(=O)CN(C)C)CC3)c2ccccc12` (stereo not drawn) [Compound 98, N-(4-(N-(3-(2-(dimethylamino)-N-methylacetamido)-2,3-dihydro-1H-inden-5-yl)sulfamoyl)naphthalen-1-yl)-2-methylbenzamide] belongs over 10000 nM.

As to `Cc1ccccc1C(=O)Nc1ccc(S(=O)(=O)Nc2ccc3c(c2)C(N(C)CCN(C)C)CCC3)c2ccccc12` (stereo not drawn) [Compound 99, N-(4-(N-(8-((2-(dimethylamino)ethyl)(methyl)amino)-5,6,7,8-tetrahydronaphthalen-2-yl)sulfamoyl)naphthalen-1-yl)-2-methylbenzamide], under setting [1], the concentration for half-maximal inhibition (IC50) was over 10000 nM. Same read-out and setting: to `CN1CCCN(C(=O)C23CC(NS(=O)(=O)c4ccc5ccccc5c4)(C2)C3)CC1` [Compound 100, N-(3-(4-methyl-1,4-diazepane-1-carbonyl)bicyclo[1.1.1]pentan-1-yl)naphthalene-2-sulfonamide] belongs over 10000 nM; to `CC(C)(C)OC(=O)N1CCC(NS(=O)(=O)c2ccc(-c3nc4ccccc4[nH]3)cc2)CC1` [Compound 102, tert-butyl 4-(4-(1H-benzo[d]imidazol-2-yl)phenylsulfonamido) piperidine-1-carboxylate], over 10000 nM; to `CN1CCN(C(=O)N2CCC(NS(=O)(=O)c3ccc(-c4nc5ccccc5[nH]4)cc3)CC2)CC1` [Compound 103, 4-(1H-benzo[d]imidazol-2-yl)-N-(1-(4-methylpiperazine-1-carbonyl)piperidin-4-yl)benzenesulfonamide], 310 nM. On the same count and under the same terms, to `C[C@H](N)C(=O)N1CCC(NS(=O)(=O)c2ccc(-c3nc4ccccc4[nH]3)cc2)CC1` [Compound 104, (S)-N-(1-(2-aminopropanoyl)piperi-din-4-yl)-4-(1H-benzo[d]imidazol-2-yl)benzenesulfonamide] belongs 258 nM. On the same count and under the same terms, in the case of `CCCC(=O)N1CCC(NS(=O)(=O)c2ccc(-c3nc4ccccc4[nH]3)cc2)CC1` [Compound 106, 4-(1H-benzo[d]imidazol-2-yl)-N-(1-butyrylpiperidin-4-yl)benzenesulfonamide] it was 1140 nM; in that of `CCCC(=O)N1CCC(NS(=O)(=O)c2ccc(-c3nc4ccccc4[nH]3)c3ccccc23)CC1` [Compound 107, 4-(1H-benzo[d]imidazol-2-yl)-N-(1-butyrylpiperidin-4-yl)naphthalene-1-sulfonamide], 913 nM. In the case of `O=S(=O)(NC1CCCCC1)c1ccc(-c2nc3ccccc3[nH]2)cc1` [Compound 108, 4-(1H-benzo[d]imidazol-2-yl)-N-cyclohexylbenzenesulfon-amide], under setting [1], the IC50 is over 10000 nM. Still for that read-out and setting: to `O=S(=O)(NC1CCOCC1)c1ccc(-c2nc3ccccc3[nH]2)cc1` [Compound 109, 4-(1H-benzo[d]imidazol-2-yl)-N-(tetrahydro-2H-pyran-4-yl)benzenesulfonamide] belongs over 10000 nM; to `Cc1ccccc1NC(=O)c1ccc(S(=O)(=O)NC(C)C2CCCCC2)cc1` (stereo not drawn) [Compound 111, 4-(N-(1-cyclohexylethyl)sulfam-oyl)-N-(o-tolyl)benzamide], over 10000 nM. Same read-out and setting: in the case of `Cc1ccccc1NC(=O)c1ccc(S(=O)(=O)N[C@H](C)C2CCN(C(=O)OC(C)(C)C)CC2)cc1C` [Compound 112, (R)-tert-butyl 4-(1-(3-methyl-4-(o-tolylcarbamoyl)phenyl-sulfonamido)ethyl)piperi-dine-1-carboxylate] it was over 10000 nM; in that of `Cc1ccccc1NC(=O)c1ccc(S(=O)(=O)N[C@H](C)C2CCNCC2)cc1C` [Compound 113A, (R)-2-methyl-4-(N-(1-(piperidin-4-yl)ethyl)sulfamoyl)-N-(o-tolyl)benzamide], 388 nM. The same measure, in the same setting: to `CCCC(=O)N1CCC(NS(=O)(=O)c2ccc(Nc3nccc4ccccc34)c3ccccc23)CC1` [Compound 114, N-(1-butyrylpiperidin-4-yl)-4-(isoquinolin-1-ylamino)naphthalene-1-sulfonamide] belongs over 10000 nM; to `CCCC(=O)N1CCC(NS(=O)(=O)c2ccc(Nc3ncnc4ccccc34)c3ccccc23)CC1` [Compound 115, N-(1-butyrylpiperidin-4-yl)-4-(quinazolin-4-ylamino)naphthalene-1-sulfonamide], 1500 nM.

As for `CCCC(=O)N1CCC(NS(=O)(=O)c2ccc(Nc3cc(C)ncn3)c3ccccc23)CC1` [Compound 116, N-(1-butyrylpiperidin-4-yl)-4-((6-methylpyrimidin-4-yl)amino)naphthalene-1-sulfonamide], the IC50 under setting [1] was over 10000 nM. Same read-out and setting: in the case of `CCCC(=O)N1CCC(NS(=O)(=O)c2ccc(Nc3nccc(C)n3)c3ccccc23)CC1` [Compound 117, N-(1-butyrylpiperidin-4-yl)-4-((4-methylpyrimidin-2-yl)amino)naphthalene-1-sulfonamide] it was 1650 nM; in that of `CCCC(=O)N1CCC(NS(=O)(=O)c2ccc(N3C(=O)c4ccccc4C3=O)cc2)CC1` [Compound 118, N-(1-butyrylpiperidin-4-yl)-4-(1,3-dioxoisoindolin-2-yl)benzenesulfonamide], over 10000 nM; in that of `CCCC(=O)N1CCC(NS(=O)(=O)c2ccc(N)cc2)CC1` [Compound 119, 4-amino-N-(1-butyrylpiperidin-4-yl)benzenesulfonamide], over 10000 nM. Still for that read-out and setting: in the case of `CCCC(=O)N1CCC(NS(=O)(=O)c2ccc(Nc3ncnc4ccccc34)cc2)CC1` [Compound 120, N-(1-butyrylpiperidin-4-yl)-4-(quinazolin-4-ylamino)benzenesulfon-amide] it was over 10000 nM; in that of `Cc1cc(S(=O)(=O)N[C@H](C)C2CCNCC2)ccc1N1C(=O)c2ccccc2C1=O` [Compound 122A, (R)-4-(1,3-dioxoisoindolin-2-yl)-3-methyl-N-(1-(piperidin-4-yl)ethyl)benzenesulfon-amide hydrochloride], over 10000 nM. For the molecule `Cc1ccccc1C(=O)Nc1ccc(S(=N)(=O)NC(C)C2CCCCC2)c2ccccc12` (stereo not drawn) [Compound 123, N-(4-(N-(1-cyclohexylethyl)sulfamimidoyl)naphthalen-1-yl)-2-methylbenzamide], under setting [1], the IC50 is 3.4 nM. The same measure, in the same setting: in the case of `Cc1ccccc1C(=O)Nc1ccc(S(=O)(=O)NC(C)c2ccccc2N)c2ccccc12` (stereo not drawn) [Compound 124, N-(4-(N-(1-(2-aminophenyl)ethyl)sul-famoyl)naphthalen-1-yl)-2-methylbenzamide] it was 832 nM; in that of `CC(=O)Nc1ccccc1C(C)NS(=O)(=O)c1ccc(NC(=O)c2ccccc2C)c2ccccc12` (stereo not drawn) [Compound 125, N-(4-(N-(1-(2-acetamidophenyl)ethyl)sulfamoyl)naphthalen-1-yl)-2-methylbenzamide], over 10000 nM; in that of `Cc1ccccc1C(=O)Nc1ccc(S(=O)(=O)NC(C)CC2CCNCC2)c2ccccc12` (stereo not drawn) [Compound 126, 2-methyl-N-(4-(N-(1-(piperidin-4-yl)propan-2-yl)sulfamoyl)naphtha-len-1-yl)benzamide], 133 nM. The same measure, in the same setting: in the case of `Cc1ccccc1C(=O)Nc1ccc(S(=O)(=O)NC(C)CC2CCN(C(=O)OC(C)(C)C)CC2)c2ccccc12` (stereo not drawn) [Compound 127, tert-butyl 4-(2-(4-(2-methylbenzamido)naphthalene-1-sulfonamido)propyl) piperidine-1-carboxylate] it was 575 nM.

As for `Cc1ccccc1C(=O)Nc1ccc(S(=O)(=O)NC(C)C=C2CCCCC2)c2ccccc12` (stereo not drawn) [Compound 130, N-(4-(N-(1-cyclohexylidene-propan-2-yl)sulfamoyl)naphtha-len-1-yl)-2-methylbenzamide], under setting [1], the IC50 was 10 nM. Still for that read-out and setting: to `Cc1ccccc1C(=O)Nc1ccc(S(=O)(=O)NC(C)C23CCN(CC2)CC3)c2ccccc12` (stereo not drawn) [Compound 131, 2-methyl-N-(4-(N-(1-(quinuclidin-4-yl)ethyl)sulfamoyl)naphthalen-1-yl)benzamide] belongs 303 nM; to `Cc1ccccc1C(=O)Nc1ccc(S(=O)(=O)NC(C)C23CCC(CC2)CC3)c2ccccc12` (stereo not drawn) [Compound 132, N-(4-(N-(1-(bicyclo[2.2.2]octan-1-yl)ethyl)sulfamoyl)naphthalen-1-yl)-2-methylbenzamide], 3.2 nM; to `CC(NS(=O)(=O)c1ccc2[nH]c(=O)[nH]c(=O)c2c1)C1CC2CCC1CC2` (stereo not drawn) [Compound 133, N-(1-(bicyclo[2.2.2]octan-2-yl)ethyl)-2,4-dioxo-1,2,3,4-tetrahydroquinazoline-6-sulfonamide], over 10000 nM.

The molecule `CC(NS(=O)(=O)c1ccc2c(c1)C(=O)NCC2)C1CC2CCC1CC2` (stereo not drawn) [Compound 134, N-(1-(bicyclo[2.2.2]octan-2-yl)ethyl)-1-oxo-1,2,3,4-tetrahydroisoquinoline-7-sulfonamide] returned an IC50 under setting [1] of over 10000 nM. Same read-out and setting: in the case of `CC(NS(=O)(=O)c1ccc2c(c1)C(=O)NCCC2)C1CC2CCC1CC2` (stereo not drawn) [Compound 135, N-(1-(bicyclo[2.2.2]octan-2-yl)ethyl)-1-oxo-2,3,4,5-tetrahydro-1H-benzo[c]azepine-8-sulfonamide] it was over 10000 nM; in that of `CC(NS(=O)(=O)c1ccc2[nH]c(=O)cnc2c1)C1CC2CCC1CC2` (stereo not drawn) [Compound 136, N-(1-(bicyclo[2.2.2]octan-2-yl)ethyl)-2-oxo-1,2-dihydroquinoxaline-6-sulfonamide], over 10000 nM. The same measure, in the same setting: to `CC(NS(=O)(=O)c1ccc2c(c1)C(=O)NC2=O)C1CC2CCC1CC2` (stereo not drawn) [Compound 137, N-(1-(bicyclo[2.2.2]octan-2-yl)ethyl)-1,3-dioxoisoindoline-5-sulfonamide] belongs over 10000 nM.
